Results reported in the NIST ThermoML archive (doi:10.1021/acs.jced.6b00121).
Numbers after ± are expanded uncertainties.

Assay: xn = mol fraction of the nth substance listed
Conditions: 100 kPa, Liquid; for viscosity: Falling or rolling sphere viscometry; for mass density: Vibrating tube method

CCCCCCCCCCC [undecane] + CCCCCCO
Conditions	mass density [kg/m3]	viscosity [mPa·s]
283.15 K, x1 = 0.1011	812.86 ± 1.6	5.655 ± 0.078
283.15 K, x1 = 0.1989	802.1 ± 1.6	4.274 ± 0.059
283.15 K, x1 = 0.2998	792.19 ± 1.6	3.34 ± 0.046
283.15 K, x1 = 0.4001	783.5 ± 1.6	2.615 ± 0.036
283.15 K, x1 = 0.4994	775.87 ± 1.6	2.198 ± 0.03
283.15 K, x1 = 0.6004	768.89 ± 1.6	1.95 ± 0.026
283.15 K, x1 = 0.6989	762.82 ± 1.5	1.72 ± 0.023
283.15 K, x1 = 0.8001	757.18 ± 1.5	1.564 ± 0.021
283.15 K, x1 = 0.8991	752.28 ± 1.5	1.455 ± 0.019
283.15 K, x1 = 1	747.78 ± 1.5	1.371 ± 0.018
288.15 K, x1 = 0.1011	809.29 ± 1.6	4.784 ± 0.065
288.15 K, x1 = 0.1989	798.49 ± 1.6	3.651 ± 0.05
288.15 K, x1 = 0.2998	788.53 ± 1.6	2.88 ± 0.039
288.15 K, x1 = 0.4001	779.81 ± 1.6	2.322 ± 0.031
288.15 K, x1 = 0.4994	772.18 ± 1.6	2.019 ± 0.027
288.15 K, x1 = 0.6004	765.18 ± 1.6	1.752 ± 0.024
288.15 K, x1 = 0.6989	759.1 ± 1.5	1.554 ± 0.021
288.15 K, x1 = 0.8001	753.47 ± 1.5	1.419 ± 0.019
288.15 K, x1 = 0.8991	748.57 ± 1.5	1.329 ± 0.018
288.15 K, x1 = 1	744.06 ± 1.5	1.249 ± 0.017
293.15 K, x1 = 0.1011	805.71 ± 1.6	4.073 ± 0.056
293.15 K, x1 = 0.1989	794.85 ± 1.6	3.136 ± 0.043
293.15 K, x1 = 0.2998	784.85 ± 1.6	2.505 ± 0.034
293.15 K, x1 = 0.4001	776.12 ± 1.6	2.118 ± 0.028
293.15 K, x1 = 0.4994	768.47 ± 1.6	1.808 ± 0.024
293.15 K, x1 = 0.6004	761.46 ± 1.5	1.58 ± 0.021
293.15 K, x1 = 0.6989	755.38 ± 1.5	1.41 ± 0.019
293.15 K, x1 = 0.8001	749.75 ± 1.5	1.293 ± 0.017
293.15 K, x1 = 0.8991	744.85 ± 1.5	1.218 ± 0.016
293.15 K, x1 = 1	740.35 ± 1.5	1.145 ± 0.015
298.15 K, x1 = 0.1011	802.1 ± 1.6	3.494 ± 0.048
298.15 K, x1 = 0.1989	791.2 ± 1.6	2.719 ± 0.037
298.15 K, x1 = 0.2998	781.16 ± 1.6	2.198 ± 0.03
298.15 K, x1 = 0.4001	772.4 ± 1.6	1.886 ± 0.025
298.15 K, x1 = 0.4994	764.75 ± 1.6	1.626 ± 0.022
298.15 K, x1 = 0.6004	757.73 ± 1.5	1.432 ± 0.019
298.15 K, x1 = 0.6989	751.65 ± 1.5	1.284 ± 0.017
298.15 K, x1 = 0.8001	746.02 ± 1.5	1.182 ± 0.016
298.15 K, x1 = 0.8991	741.12 ± 1.5	1.116 ± 0.015
298.15 K, x1 = 1	736.64 ± 1.5	1.062 ± 0.014
303.15 K, x1 = 0.1011	798.47 ± 1.6	3.016 ± 0.041
303.15 K, x1 = 0.1989	787.52 ± 1.6	2.374 ± 0.032
303.15 K, x1 = 0.2998	777.45 ± 1.6	1.952 ± 0.026
303.15 K, x1 = 0.4001	768.67 ± 1.6	1.687 ± 0.023
303.15 K, x1 = 0.4994	761.01 ± 1.5	1.47 ± 0.02
303.15 K, x1 = 0.6004	753.98 ± 1.5	1.305 ± 0.017
303.15 K, x1 = 0.6989	747.89 ± 1.5	1.176 ± 0.016
303.15 K, x1 = 0.8001	742.27 ± 1.5	1.09 ± 0.015
303.15 K, x1 = 0.8991	737.38 ± 1.5	1.031 ± 0.014
303.15 K, x1 = 1	732.93 ± 1.5	0.982 ± 0.013
308.15 K, x1 = 0.1011	794.81 ± 1.6	2.62 ± 0.036
308.15 K, x1 = 0.1989	783.82 ± 1.6	2.09 ± 0.028
308.15 K, x1 = 0.2998	773.71 ± 1.6	1.746 ± 0.023
308.15 K, x1 = 0.4001	764.91 ± 1.6	1.517 ± 0.02
308.15 K, x1 = 0.4994	757.24 ± 1.5	1.334 ± 0.018
308.15 K, x1 = 0.6004	750.21 ± 1.5	1.193 ± 0.016
308.15 K, x1 = 0.6989	744.12 ± 1.5	1.08 ± 0.014
308.15 K, x1 = 0.8001	738.5 ± 1.5	1.002 ± 0.013
308.15 K, x1 = 0.8991	733.62 ± 1.5	0.954 ± 0.013
308.15 K, x1 = 1	729.23 ± 1.5	0.91 ± 0.012
313.15 K, x1 = 0.1011	791.12 ± 1.6	2.29 ± 0.031
313.15 K, x1 = 0.1989	780.08 ± 1.6	1.857 ± 0.025
313.15 K, x1 = 0.2998	769.94 ± 1.6	1.574 ± 0.021
313.15 K, x1 = 0.4001	761.13 ± 1.5	1.372 ± 0.018
313.15 K, x1 = 0.4994	753.45 ± 1.5	1.226 ± 0.016
313.15 K, x1 = 0.6004	746.41 ± 1.5	1.106 ± 0.015
313.15 K, x1 = 0.6989	740.32 ± 1.5	0.996 ± 0.013
313.15 K, x1 = 0.8001	734.71 ± 1.5	0.927 ± 0.012
313.15 K, x1 = 0.8991	729.84 ± 1.5	0.886 ± 0.012
313.15 K, x1 = 1	725.53 ± 1.5	0.847 ± 0.011
318.15 K, x1 = 0.1011	787.39 ± 1.6	2.02 ± 0.027
318.15 K, x1 = 0.1989	776.31 ± 1.6	1.664 ± 0.022
318.15 K, x1 = 0.2998	766.14 ± 1.6	1.437 ± 0.019
318.15 K, x1 = 0.4001	757.31 ± 1.5	1.245 ± 0.017
318.15 K, x1 = 0.4994	749.63 ± 1.5	1.1 ± 0.015
318.15 K, x1 = 0.6004	742.59 ± 1.5	1.008 ± 0.014
318.15 K, x1 = 0.6989	736.5 ± 1.5	0.921 ± 0.012
318.15 K, x1 = 0.8001	730.9 ± 1.5	0.861 ± 0.012
318.15 K, x1 = 0.8991	726.05 ± 1.5	0.822 ± 0.011
318.15 K, x1 = 1	721.82 ± 1.5	0.79 ± 0.011
323.15 K, x1 = 0.1011	–	1.799 ± 0.024
323.15 K, x1 = 0.1989	–	1.528 ± 0.02
323.15 K, x1 = 0.2998	–	1.301 ± 0.017
323.15 K, x1 = 0.4001	–	1.136 ± 0.015
323.15 K, x1 = 0.4994	–	1.011 ± 0.014
323.15 K, x1 = 0.6004	–	0.931 ± 0.012
323.15 K, x1 = 0.6989	–	0.853 ± 0.011
323.15 K, x1 = 0.8001	–	0.801 ± 0.011
323.15 K, x1 = 0.8991	–	0.773 ± 0.01
323.15 K, x1 = 1	–	0.74 ± 0.01
